Data taken from article PMC8160438, “A Novel Heptapeptide, GPPGPAG Transfers to the Brain, and Ameliorates Memory Dysfunction and Dendritic Atrophy in Alzheimer’s Disease Model Mice” (Frontiers in Pharmacology, 2021).
No end group written: not given here.

How the values were obtained:
cortical neurons = assay: Entry into cultured cortical neurons, LC-MS of the lysate; format: in vitro ADME, mouse; conditions: 1 mg/dish, 1.0 x 10^7 cells/10-cm dish, 0, 10, 20, 30, 60, 180, 360 min
Description: Intracellular amount of GPPGPAG after addition to cultured cortical neurons.
Mouse cortical neurons were seeded at 1.0 x 10^7 cells/10-cm dish. After 3 – 4 days culture, 1 mg/dish GPPGPAG was added. Incubation time was 0, 10,20, 30, 60, 180 and 360 min. After complete washing by PBS, cell lysate was prepared by M-PER solution. The lysate was ultrasonicated with methanol for 60 sec, and centrifuged (12000g) for 10 min at 4℃. Supernatant was dried up and served for […]
(1 picture or pasted object on this page, not shown here)

Stability in saline = format: physicochemical; conditions: 5 μg/ml, 37°C, 0, 10, 60, 180 min, LC-MS, n = 1
Description: For intraventricular administration, GPPGPAG was dissolved in artificial cerebrospinal fluid (ACSF; 130 mM NaCl, 24 mM NaHCO3, 3.5 mM KCl, 1.3 mM Na2HPO4, 2 mM CaCl2, 2 mM MgCl2 6H2O, and 10 mM glucose at pH 7.4) for use. GPPGPAG or ACSF was continuously injected for 28 days into the left ventricle (bregma: −0.2 mm, lateral: 1.0 mm, depth: −3.0 mm) using Alzet Osmotic Pump (1004, DURECT Corporation, CA, United States) and ALZET Brain Infusion Kit 3 (DURECT Corporation). Based on the amount of CSF produced which was 18 μL/h and the pump flow rate of 0.11 μL/h, the peptide in the pump was estimated to be diluted 164 times in the CSF to reach a final concentration 10 nM which was the effective dose in the cultured neuron experiments. Therefore 1.64 µM GPPGPAG was loaded into the pump. Stability of GPPGPAG in saline, mouse plasma and mouse cerebral cortex was confirmed by LC-MS quantification. GPPGPAG was mixed with saline or plasma at 5 μg/ml concentration. Otherwise, GPPGPAG was mixed with cortical lysate at 6.5 μg/g of cortex. After incubation at 37°C for 0, 10, 60, and 180 min, samples were dried up and served to LC-MS. Areas of MS peaks of GPPGPAG were quantified. […]
Stability of GPPGPAG in biological fluids.
(A) GPPGPAG was mixed with saline at 5 μg/ml concentration. (B) GPPGPAG was mixed with mouse plasma at 5 μg/ml concentration. […]

[1] = Plasma level after oral administration, LC-MS; format: in vivo; conditions: 500 mg/animal, ddY mice, female, 8 weeks, 500 mg/mouse p.o. single dose, sampled at 10, 60, 180 min, n = 3, read-out: time of peak in the plasma (converted)
Description: Bioavailability and brain penetration of GPPGPAG was performed as previously described ([Yang et al., 2017]). GPPGPAG (500 mg) was dissolved in 750 μL of physiological saline. GPPGPAG or vehicle solution (physiological saline) was orally administered using an oral gavage to female ddY mice (8 weeks-old). The mice were euthanized at 10, 60, and 180 min after administration. Blood was collected and centrifuged at 10,000 g and 4°C for 10 min to yield plasma. Plasma aliquots (200 μL) were extracted with methanol, dried, sonicated, and resolubilized in 50% methanol (100 μL). The cerebral cortex was also collected after complete saline perfusion for removing blood. […]
FIGURE 6 Brain penetration of GPPGPAG after oral administration in mice GPPGPAG (500 mg/mouse, p. o.) or vehicle solution (physiological saline) was administered to mice (ddY, females, 8 weeks old, n = 3) as a single dose. […] (A) Total ion chromatogram (upper) and extracted ion current chromatogram (lower) of standard GPPGPAG (m/z = 552.2753) at 10 μg/ml for quantification of (B) and (C) data. […] In total ion chromatogram (upper) and extracted ion current chromatogram (lower) of m/z = 552.2753, no peaks were detected. […] In total ion chromatogram and extracted ion current chromatogram of m/z = 552.2753, peaks matching the retention time of GPPGPAG were detected. […]

stability, amount remaining (MS peak area) (Stability in saline): not declined during 180 min-incubation | Tmax [1]: 10 min
Substance: GPPGPAG [GPPGPAG]
entry into the neurons (intracellular amount) (cortical neurons): detected from 10 min after treatment and gradually increased up to 360 min afterward
